Measurements taken from patent US8377884B2, “Variants of C-type natriuretic peptides” (Biomarin Pharmaceutical Inc., priority 2007, dated 2013).

Tests used:
Recombinant human NEP = Recombinant human NEP (Homo sapiens, UniProt P08473); experiment: In vitro neutral endopeptidase (NEP) cleavage assay; details: NEP digestion for […] in vitro
Procedure, shortened: (§1)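 Recombinant human NEP (1 ug/mL final) incubated with 100 uM CNP variant in 0.1 M Tris, pH 7, at 37° C for various times, then quenched with EDTA (10 mM final) and heat. Samples reduced and analysed by HPLC and mass spectrometry. Half-life derived from loss of intact variant over time.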

[1] = molecular target: neutral endopeptidase (NEP) (Homo sapiens, UniProt P08473); experiment: as above; details: human, pH 7
Sequence of neutral endopeptidase (NEP) (P08473 whole entry): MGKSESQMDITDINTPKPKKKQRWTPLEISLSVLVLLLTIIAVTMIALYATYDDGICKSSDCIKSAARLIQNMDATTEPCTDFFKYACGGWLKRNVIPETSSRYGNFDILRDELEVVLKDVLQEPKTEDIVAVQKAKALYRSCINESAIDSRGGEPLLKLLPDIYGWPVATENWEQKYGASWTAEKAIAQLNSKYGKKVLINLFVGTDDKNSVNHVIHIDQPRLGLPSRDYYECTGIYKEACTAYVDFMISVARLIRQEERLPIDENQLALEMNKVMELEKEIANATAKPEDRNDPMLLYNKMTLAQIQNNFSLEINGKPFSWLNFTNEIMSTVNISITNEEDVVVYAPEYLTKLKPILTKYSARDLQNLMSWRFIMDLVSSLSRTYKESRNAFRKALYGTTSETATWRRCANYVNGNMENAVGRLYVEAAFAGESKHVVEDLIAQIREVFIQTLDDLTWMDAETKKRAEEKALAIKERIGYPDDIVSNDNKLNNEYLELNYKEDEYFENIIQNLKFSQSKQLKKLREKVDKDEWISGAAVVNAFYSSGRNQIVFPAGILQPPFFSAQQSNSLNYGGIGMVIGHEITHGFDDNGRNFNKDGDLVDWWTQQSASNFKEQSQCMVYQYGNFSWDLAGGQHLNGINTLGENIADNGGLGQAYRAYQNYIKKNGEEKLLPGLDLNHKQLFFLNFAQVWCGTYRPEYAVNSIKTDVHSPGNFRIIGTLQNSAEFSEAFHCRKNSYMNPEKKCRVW
Procedure, shortened: as §1

NPR-B [2] = molecular target: T1, NPR-B (Mus musculus, UniProt Q6VVW5); experiment: Stimulation of cGMP production in NIH3T3 cells; format: cell-based, Murine; details: NIH3T3 cells, normalized to cell number and cGMP production with 1 uM wtCNP22
T1 construct: Murine NIH3T3 cells express endogenously the CNP signaling receptor, NPR-B; endogenous in cells; host or cells: NIH3T3 (murine fibroblasts)
T1 sequence (Q6VVW5 17-1047): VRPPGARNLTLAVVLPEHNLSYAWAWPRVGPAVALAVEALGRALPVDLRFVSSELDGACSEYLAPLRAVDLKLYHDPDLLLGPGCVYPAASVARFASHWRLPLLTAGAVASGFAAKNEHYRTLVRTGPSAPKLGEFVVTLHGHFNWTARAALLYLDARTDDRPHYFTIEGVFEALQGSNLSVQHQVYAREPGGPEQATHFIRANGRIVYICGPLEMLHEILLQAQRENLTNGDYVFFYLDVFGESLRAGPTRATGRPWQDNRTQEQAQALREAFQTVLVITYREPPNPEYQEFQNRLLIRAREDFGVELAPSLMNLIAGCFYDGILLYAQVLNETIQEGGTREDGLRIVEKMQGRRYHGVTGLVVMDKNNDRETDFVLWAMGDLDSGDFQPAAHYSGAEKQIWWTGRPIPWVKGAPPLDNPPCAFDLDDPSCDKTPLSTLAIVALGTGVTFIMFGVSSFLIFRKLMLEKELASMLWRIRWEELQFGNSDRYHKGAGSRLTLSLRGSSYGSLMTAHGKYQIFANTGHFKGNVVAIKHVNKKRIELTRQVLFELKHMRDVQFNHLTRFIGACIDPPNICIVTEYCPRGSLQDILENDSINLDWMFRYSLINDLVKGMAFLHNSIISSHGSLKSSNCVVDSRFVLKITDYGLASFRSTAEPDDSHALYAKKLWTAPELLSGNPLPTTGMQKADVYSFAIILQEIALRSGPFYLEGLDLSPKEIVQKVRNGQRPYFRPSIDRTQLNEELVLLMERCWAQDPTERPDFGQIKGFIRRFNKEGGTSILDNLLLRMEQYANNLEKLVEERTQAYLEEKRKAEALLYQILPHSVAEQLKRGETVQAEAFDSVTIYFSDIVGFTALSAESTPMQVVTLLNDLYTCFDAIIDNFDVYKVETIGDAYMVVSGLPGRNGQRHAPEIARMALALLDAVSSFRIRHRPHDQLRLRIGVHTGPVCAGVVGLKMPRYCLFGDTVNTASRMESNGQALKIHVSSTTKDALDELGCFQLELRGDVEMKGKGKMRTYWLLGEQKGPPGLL

[3] = Pharmacokinetics in normal rats after single i.v. or s.c. administration; details: male, rat, in vivo
Description: Studies were conducted in normal rats to evaluate the pharmacokinetics (PK) profile of CNP22 and certain CNP variants and the time courses of plasma cGMP concentration after single intravenous (i.v.) or subcutaneous (s.c.) administration of the CNP peptides. Plasma CNP immunoreactivity was determined by using a competitive radioimmunoassay (RIA) with an anti-CNP rabbit polyclonal antibody. Plasma cGMP concentration was determined by RIA using a commercially available kit (YAMASA cyclic GMP Assay kit, YAMASA Corporation).
Normal male rats, 7-8 weeks of age, were used. Recombinant wild-type CNP22, CNP37 and PEO24-CNP27(Arg4) (i.e., PEO24-GANRR-CNP22(K4R)) were evaluated. A dosage of 20 nmol/kg of each CNP peptide as a solution in 5% mannitol was intravenously injected once into the tail, or a dosage of 50 nmol/kg of each CNP peptide as a solution in 0.03 mol/L acetic acid buffer solution, pH 4.0, containing 1% (w/v) benzyl alcohol and 10% (w/v) sucrose, was subcutaneously injected once into the back.
Plasma CNP immunoreactivity was determined by the competitive RIA using anti-CNP rabbit polyclonal antibody. Standard and QC samples were prepared. Fifty uL of the standard, QC and assay samples were added, respectively, to test tubes containing 50 uL of RIA buffer. Diluted anti-CNP rabbit polyclonal antibody (100 uL) was added to the tubes. All tubes were kept at 4° C. overnight. ^125I-[Tyr^0]-CNP22 solution (100 uL) and rabbit IgG solution (100 uL) were added and left at approximately 4° C. overnight. One milliliter of anti-rabbit IgG goat serum containing 10% polyethylene glycol was added, vortexed and left at approximately 4° C. for at least 1 hour, and then the insoluble fraction was precipitated by centrifugation. After aspiration of the supernatant, the amount of radiation (gamma line) in the sediment was measured by a gamma-counter. Each sample was measured in duplicate, and the mean was adopted as the value determined.
Plasma CNP immunoreactivity was employed for pharmacokinetics (PK) analysis. PK analysis was performed using WINNONLIN® Professional (Pharsight Corporation). The PK profiles of CNP22, CNP37 and PEO24-CNP27(Arg4) after i.v. administration were calculated using PK parameters such as concentration at 0 hour (C0: extrapolation, pmol/mL), total body clearance (CLtot: mL/min/kg), distribution volume at steady state (Vdss: mL/kg), area under the plasma concentration-time curve (AUC: pmol·min/mL), mean residence time (MRT: min), and half-life (T1/2: min). The PK profiles of the CNP peptides after s.c. administration were calculated using PK parameters such as maximum plasma concentration (Cmax: pmol/mL), time to reach Cmax (Tmax: min), area under the plasma concentration-time curve (AUC: pmol·min/mL), mean residence time (MRT: min), and half-life (T1/2: min).

in vivo = details: FVB/N, mouse, plasma, iv, 100 nmol/kg
Description: To determine CNP variants having increased NEP resistance, for efficacy study in FGFR3^ach mice (see Example 11), a pharmacokinetics (PK) study is carried out that compares the pharmacokinetics properties of CNP variants to wild-type CNP22. The FGFR3^ach mouse is a mutant mouse model of achondroplasia, containing a single transgene on a background of FVB mice.
Wild-type CNP22 or variant thereof is administered as a single intravenous (i.v.) dose in 6-week old wild-type FVB mice. Exemplary PK studies were conducted using wtCNP22. Six-week old FVB/N mice were intravenously administered wtCNP22 in a single dose at 100 nmol/kg.

NPR-B [4] = molecular target: NPR-B (Homo sapiens, UniProt P20594); details: read-out: affinity to NPR-B; cited from earlier work
Sequence of NPR-B (Homo sapiens, UniProt P20594) (P20594 23-1047, species assumed): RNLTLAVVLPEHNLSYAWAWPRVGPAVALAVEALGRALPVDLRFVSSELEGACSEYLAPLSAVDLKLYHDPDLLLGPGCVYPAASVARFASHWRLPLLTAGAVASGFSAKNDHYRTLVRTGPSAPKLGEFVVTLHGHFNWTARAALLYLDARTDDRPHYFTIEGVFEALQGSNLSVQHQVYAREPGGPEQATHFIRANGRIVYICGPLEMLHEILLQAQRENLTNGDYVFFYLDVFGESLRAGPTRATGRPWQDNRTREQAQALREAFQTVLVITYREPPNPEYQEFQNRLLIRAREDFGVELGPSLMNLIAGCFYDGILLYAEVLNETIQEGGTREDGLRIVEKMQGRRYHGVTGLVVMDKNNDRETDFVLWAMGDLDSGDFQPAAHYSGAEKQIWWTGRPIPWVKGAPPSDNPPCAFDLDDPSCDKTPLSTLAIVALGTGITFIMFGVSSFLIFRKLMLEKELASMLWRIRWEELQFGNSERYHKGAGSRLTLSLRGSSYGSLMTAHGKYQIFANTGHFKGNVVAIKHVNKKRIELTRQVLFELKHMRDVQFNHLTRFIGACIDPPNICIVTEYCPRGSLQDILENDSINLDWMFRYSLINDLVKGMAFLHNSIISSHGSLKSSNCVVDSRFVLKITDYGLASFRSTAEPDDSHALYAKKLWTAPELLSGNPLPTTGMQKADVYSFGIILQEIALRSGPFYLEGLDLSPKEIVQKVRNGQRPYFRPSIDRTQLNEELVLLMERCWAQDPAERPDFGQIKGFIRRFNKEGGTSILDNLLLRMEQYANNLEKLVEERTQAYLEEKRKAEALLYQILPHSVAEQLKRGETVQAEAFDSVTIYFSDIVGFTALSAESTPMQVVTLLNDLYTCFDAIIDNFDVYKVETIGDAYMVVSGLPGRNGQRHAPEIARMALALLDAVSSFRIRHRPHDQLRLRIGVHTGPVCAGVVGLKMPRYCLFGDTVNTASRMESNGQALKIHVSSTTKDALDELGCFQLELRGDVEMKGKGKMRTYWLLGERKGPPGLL

NPR-C = NPR-C (Homo sapiens, UniProt P17342); details: read-out: affinity to NPR-C; cited from earlier work
Sequence of NPR-C (P17342 27-541, species assumed): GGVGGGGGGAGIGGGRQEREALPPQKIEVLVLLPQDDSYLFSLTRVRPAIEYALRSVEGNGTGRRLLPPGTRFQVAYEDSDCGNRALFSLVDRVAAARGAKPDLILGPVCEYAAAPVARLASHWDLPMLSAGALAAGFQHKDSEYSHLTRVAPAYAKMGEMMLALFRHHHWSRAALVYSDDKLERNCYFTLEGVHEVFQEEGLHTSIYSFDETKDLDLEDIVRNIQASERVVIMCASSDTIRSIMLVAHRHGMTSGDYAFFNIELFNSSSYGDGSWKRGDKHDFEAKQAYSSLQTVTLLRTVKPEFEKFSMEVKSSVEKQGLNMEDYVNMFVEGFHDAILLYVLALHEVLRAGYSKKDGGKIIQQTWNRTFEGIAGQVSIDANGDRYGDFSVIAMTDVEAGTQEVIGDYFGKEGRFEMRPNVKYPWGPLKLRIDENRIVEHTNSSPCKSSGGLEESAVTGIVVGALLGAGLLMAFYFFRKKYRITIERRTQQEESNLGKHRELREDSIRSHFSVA

Sequence of Recombinant human NEP (P08473 whole entry): as the sequence (P08473 whole entry) above

In the case of `CC[C@H](C)[C@@H]1NC(=O)[C@H](CCCNC(=N)N)NC(=O)[C@H](CC(=O)O)NC(=O)[C@H](CC(C)C)NC(=O)[C@H](CCCCN)NC(=O)[C@H](CC(C)C)NC(=O)CNC(=O)[C@H](Cc2ccccc2)NC(=O)[C@@H](NC(=O)CNC(=O)[C@H](CCCCN)NC(=O)[C@H](CO)NC(=O)[C@H](CC(C)C)NC(=O)CN)CSSC[C@@H](C(=O)O)NC(=O)CNC(=O)[C@H](CC(C)C)NC(=O)CNC(=O)[C@H](CO)NC(=O)[C@H](CCSC)NC(=O)[C@H](CO)NC(=O)CNC1=O` [CNP22, CNP-22], the “sites hydrolyzed on NEP digestion” value (Recombinant human NEP) is reported as “all possible sites were unexpectedly hydrolyzed”, the half-life at 100 uM [1] is reported as 80 min and the cGMP response relative to 1 uM CNP22 (%) at 0.01 µM (NPR-B [2]; 10 nM natriuretic peptide, read-out: cGMP Response rel. to 1 uM CNP22, 10 nM) is reported as 46 ± 10%. The cGMP response relative to 1 uM CNP22 (%) at 1 µM (NPR-B [2]; 1 uM natriuretic peptide, read-out: cGMP Response rel. to 1 uM CNP22, 1 uM) was 100 ± 13%, the AUC ([3]; iv, 20 nmol/kg) was 5.33 nM·h and the half-life ([3]; iv, 20 nmol/kg) was 1.42 min. The bioavailability ([3]; sc, 50 nmol/kg) was 19%, the half-life ([3]; sc, 50 nmol/kg) was 10 min and the half-life (in vivo) was 0.76 to 1.03 min. For the same molecule, the Kd (NPR-B [4]) was 0.007 to 0.03 nM and the Kd (NPR-C) was 0.011 to 0.14 nM.
